# System: primary human lung fibroblasts and primary rodent HSCs
# Assay: High content imaging assay (α-SMA staining, cell morphology) of fibroblast to myofibroblast transdifferentiation, confirmed by Western blot and RT-PCR
# Conditions: Homo sapiens, Fibroblast; imaging and western based activity
# Excerpt: High content imaging assays have been established, using primary human lung fibroblasts and primary rodent HSCs, that enable the identification of small molecules that either inhibit myofibroblast formation/activation or induce the reversion of activated myofibroblasts to a quiescent fibroblast state. Conditions, involving serum starvation and subsequent TGF-β treatment, have been identified that facilitate robust in vitro transdifferentiation in a miniaturized (384 well plate) format that is amenable to high throughput small molecule screening. The inhibition assay is based on α-SMA immunofluorescent staining and cell morphology changes associated with fibroblast to myofibroblast transdifferentiation, Using the selective ALK-5 TGF-β1 receptor inhibitor ([…]) as a positive control, the inhibition assay has been used to initiate a screen of a collection of ˜100,000 small molecules that consists of bioactive small molecules and a diversity set that has been assembled based on 2D and 3D structural diversity and inherent “drug-likeness” properties. Preliminary screening led to the identification of multiple previously identified anti-fibrotic molecules.
# A high content imaging assay, based on α-SMA staining and cell morphological changes associated with fibroblast to myofibroblast transdifferentiation, was established using primary human lung fibroblasts and primary rodent HSCs. Conditions, involving serum starvation and subsequent TGF-β treatment, were identified that facilitate robust in vitro transdifferentiation in a miniaturized (384 well plate) format that is amenable to high throughput small molecule screening. A selective ALK-5 TGF-β1 receptor inhibitor (SB-431542) was used as a positive control. […] This assay was used to evaluate compounds of Formula (I), (Ia), (II), (IIa), (III), (IIIa), (IV), (IVa), (IVb), (V), (Va), (VI), (VIa), (VIb), (VIc), (VII), (VIIa), (VIII), (VIIIa), (IX), (IXa), (X), or (Xa) generated from medicinal chemistry efforts.
# The activity of Itraconazole and compounds of Formula (I), (Ia), (II), (IIa), (III), (IIIa), (IV), (IVa), (IVb), (V), (Va), (VI), (VIa), (VIb), (VIc), (VII), (VIIa), (VIII), (VIIIa), (IX), (IXa), (X), or (Xa) was confirmed by analyzing changes in gene expression of multiple genes associated with fibroblast to myofibroblast transdifferentiation using biochemical methods (i.e., Western blot and RT-PCR). These 4-day assays were used to evaluate sets of 6 compounds at a time in 4-point dose response fashion.
# The EC50 for (imaging and western based) activity is graded as: +++=<500 nM; ++=500 nM to 5 μM; +=5 to 30 μM); −=>30 μM; NT=Not Tested.
row,SMILES,EC50 [µM]
1,CC[C@H](C)n1ncn(-c2ccc(N3CCN(c4ccc(OC[C@@H]5CO[C@](Cn6nccn6)(c6ccccc6)O5)cc4)CC3)cc2)c1=O [Compound 190],0.5 to 5
2,CCC(C)n1ncn(-c2ccc(N3CCN(c4cc(C)c(OC[C@@H]5CO[C@@](Cn6nccn6)(c6ccccc6)O5)c(C)c4)CC3)cc2)c1=O (some centres unmarked) [Compound 61],5 to 30
3,CCC(C)n1ncn(-c2ccc(N3CCN(c4ccc(OC[C@@H]5CO[C@](Cc6ccnnc6)(c6ccc(OC(F)(F)F)cc6)O5)cc4)CC3)cc2)c1=O (some centres unmarked) [Compound 115],0.5 to 5
4,CCC(C)n1ncn(-c2ccc(N3CCN(c4ccc(OC[C@H]5CO[C@](Cn6nccn6)(c6ccccc6)C5)cc4)CC3)cc2)c1=O (some centres unmarked) [Compound 147],> 30
5,CCC(C)n1ncn(-c2ccc(N3CCN(c4ccc(OC[C@@H]5CO[C@@](Cn6nccn6)(c6ccccc6)O5)cc4)C(C)C3)cc2)c1=O (some centres unmarked) [Compound 72],5 to 30
6,CC[C@H](C)n1ncn(-c2ccc(N3CCN(c4ccc(OC[C@@H]5CO[C@@](Cn6cccn6)(c6ccccc6)O5)cc4)CC3)cc2)c1=O [Compound 168],< 0.5
7,CCC(C)n1ncn(-c2ccc(N3CCN(c4ccc(OC[C@@H]5CO[C@@](Cn6cccn6)(c6cc(Cl)cc(Cl)c6)O5)cc4)CC3)cc2)c1=O (some centres unmarked) [Compound 80],0.5 to 5
8,CCC(C)n1ncn(-c2ccc(N3CCN(c4ccc(OC[C@@H]5CO[C@@](Cc6ccnnc6)(c6ccc(Cl)c(Cl)c6)O5)cc4)CC3)cc2)c1=O (some centres unmarked) [Compound 126],< 0.5
9,CCC(C)n1ncn(-c2ccc(N3CCN(c4ccc(OC[C@@H]5CO[C@](CN6CCOCC6)(c6ccc(Cl)cc6Cl)O5)cc4)CC3)cc2)c1=O (some centres unmarked) [Compound 45],> 30
10,CCC(C)n1ncn(-c2ccc(N3CCN(c4ccc(OC[C@@H]5CO[C@@](Cn6cccn6)(c6cccc(C#N)c6)O5)cc4)CC3)cc2)c1=O (some centres unmarked) [Compound 88],0.5 to 5
11,CC[C@H](C)n1ncn(-c2ccc(N3CCN(c4ccc(OC[C@H]5CO[C@](Cn6cccn6)(c6ccc(C#N)cc6C)O5)cc4)CC3)cc2)c1=O [Compound 174],0.5 to 5
12,CCC(C)n1ncn(-c2ccc(N3CCN(c4ccc(OC[C@@H]5CO[C@@](Cn6nccn6)(c6ccccc6)O5)c(CN)c4)CC3)cc2)c1=O (some centres unmarked) [Compound 68],< 0.5
13,CCC(C)n1ncn(-c2ccc(N3CCN(c4ccc(OC[C@@H]5CO[C@@](CCn6nccn6)(c6ccc(Cl)cc6Cl)O5)cc4)CC3)cc2)c1=O (some centres unmarked) [Compound 52],< 0.5
14,CCC(C)n1ncn(-c2ccc(N3CCN(c4ccc(OC[C@@H]5CO[C@@](Cn6nccn6)(c6ccc(Cl)cc6Cl)O5)cc4C#N)CC3)cc2)c1=O (some centres unmarked) [Compound 56],0.5 to 5
15,N#Cc1cc(OC[C@@H]2CO[C@@](Cn3nccn3)(c3ccccc3)O2)ccc1N1CCN(c2ccc(-n3cnn(CC4CCCC4)c3=O)cc2)CC1 [Compound 156],0.5 to 5
16,CC[C@@H](C)n1ncn(-c2ccc(N3CCN(c4ccc(OC[C@H]5CO[C@@](Cn6nccn6)(c6ccccc6)O5)cc4)CC3)cc2)c1=O [Compound 184],< 0.5
17,CCC(C)n1ncn(-c2ccc(N3CCN(c4ccc(OC[C@@H]5CO[C@](Cn6nccn6)(c6ccccc6)O5)cc4)CC3)cc2)c1=O (some centres unmarked) [Compound 186],5 to 30
18,O=c1n(-c2ccc(N3CCN(c4ccc(OC[C@@H]5CO[C@@](Cn6nccn6)(c6ccc(Cl)cc6Cl)O5)cc4)CC3)cc2)cnn1CC1CCCC1 [Compound 14],< 0.5
19,CCC(C)n1ncn(-c2ccc(N3CCN(c4ccc(OC[C@@H]5CO[C@@](Cn6nccn6)(c6ccccc6)O5)cc4C(F)(F)F)CC3)cc2)c1=O (some centres unmarked) [Compound 60],5 to 30
20,CCC(C)n1ncn(-c2ccc(N3CCN(c4ccc(OC[C@@H]5CO[C@@](Cn6nccn6)(c6cc(C#N)ccc6C)O5)cc4)CC3)cc2)c1=O (some centres unmarked) [Compound 28],5 to 30
21,CCC(C)n1ncn(-c2ccc(N3CCN(c4ccc(OC[C@H]5CO[C@](Cn6nccn6)(c6ccccc6)C5)cc4F)CC3)cc2)c1=O (some centres unmarked) [Compound 148],> 30
22,CCC(C)n1ncn(-c2ccc(N3CCN(c4ccc(OC[C@@H]5CO[C@@](Cc6ccnnc6)(c6ccccc6C)O5)cc4)CC3)cc2)c1=O (some centres unmarked) [Compound 136],0.5 to 5

row,SMILES,EC50 [µM]
1,CCC(C)n1ncn(-c2ccc(N3CCN(c4ccc(OC[C@H]5OC[C@](Cn6cncn6)(c6ccc(F)cc6F)O5)cc4)CC3)cc2)c1=O (mixture of isomers) [compound 200],< 0.5
2,CCC(C)n1ncn(-c2ccc(N3CCN(c4ccc(OC[C@@H]5CO[C@](Cc6ccnnc6)(c6cccc(C)c6)O5)cc4)CC3)cc2)c1=O (some centres unmarked) [Compound 117],0.5 to 5
3,CCC(CC)n1ncn(-c2ccc(N3CCN(c4ccc(OC[C@H]5CO[C@](Cn6nccn6)(c6ccccc6)O5)cc4)CC3)cc2)c1=O [Compound 160],< 0.5
4,Cc1cc(C#N)ccc1[C@]1(Cn2nccn2)OC[C@@H](COc2ccc(N3CCN(c4ccc(-n5cnn(CC6CCCC6)c5=O)cc4)CC3)cc2)O1 [Compound 25],0.5 to 5
5,CC[C@@H](C)n1ncn(-c2ccc(N3CCN(c4ccc(OC[C@@H]5CO[C@@](Cn6cccn6)(c6ccc(C#N)cc6C)O5)cc4)CC3)cc2)c1=O [Compound 173],0.5 to 5
6,CCC(C)n1ncn(-c2ccc(N3CCN(c4ccc(OC[C@@H]5CO[C@@](Cn6nccn6)(c6ccccc6)O5)cc4)CC3)c(C#N)c2)c1=O (some centres unmarked) [Compound 71],5 to 30
7,CC(C)N1CCN(c2ccc(OC[C@@H]3CO[C@@](Cn4nccn4)(c4ccc(Cl)cc4Cl)O3)cc2)CC1 [Compound 5],5 to 30
8,CCC(C)n1ncn(-c2ccc(N3CCN(c4ccc(OC[C@@H]5CO[C@@](Cn6nccn6)(c6ccccc6)O5)c(S(C)(=O)=O)c4)CC3)cc2)c1=O (some centres unmarked) [Compound 64],0.5 to 5
9,CCC(C)n1ncn(-c2ccc(N3CCN(c4ccc(OC[C@@H]5CO[C@](Cc6ccnnc6)(c6ccccc6C(F)(F)F)O5)cc4)CC3)cc2)c1=O (some centres unmarked) [Compound 112],0.5 to 5
10,CC(O)C(C)n1cnn(-c2ccc(N3CCN(c4ccc(OC[C@@H]5CO[C@@](Cn6nccn6)(c6ccccc6)O5)cc4)CC3)cc2)c1=O (some centres unmarked) [Compound 16],5 to 30
11,CCC(CC)n1ncn(-c2ccc(N3CCN(c4ccc(OC[C@H]5CO[C@](Cn6nccn6)(c6ccc(Cl)cc6Cl)O5)cc4F)CC3)cc2)c1=O [Compound 165],< 0.5
12,CCC(C)n1ncn(-c2ccc(N3CCN(c4ccc(OC[C@@H]5CO[C@@](Cn6nccn6)(c6ccc(Cl)cc6Cl)O5)cn4)CC3)cc2)c1=O (some centres unmarked) [Compound 53],0.5 to 5
13,O=c1n(-c2ccc(N3CCN(c4ccc(OC[C@@H]5CO[C@@](Cn6nccn6)(c6ccc(Cl)cc6Cl)O5)cc4F)CC3)cc2)cnn1CC1CCCC1 [Compound 154],< 0.5
14,CCC(C)n1ncn(-c2ccc(N3CCN(c4ccc(OC[C@@H]5CO[C@@](Cn6nccn6)(c6ccccc6)O5)c(C#N)c4)CC3)cc2)c1=O (some centres unmarked) [Compound 65],< 0.5
15,C#Cc1ccc([C@]2(Cn3cncn3)OC[C@@H](COc3ccc(N4CCN(c5ccc(-n6cnn(CCC7(C)N=N7)c6=O)cc5)CC4)cc3)O2)cc1 [Compound 192],0.5 to 5
16,CCC(C)n1ncn(-c2ccc(N3CCN(c4ccc(OC[C@@H]5CO[C@@](Cc6ccnnc6)(c6ccc(C(F)(F)F)cc6)O5)cc4)CC3)cc2)c1=O (some centres unmarked) [Compound 134],< 0.5
17,"CC[C@H](C)n1ncn(-c2ccc(N3CCN(c4ccc(OC[C@H]5CO[C@](Cn6nccn6)(c6ccccc6)O5)cc4)CC3)cc2)c1=O [Compound 183, 4-(4-(4-(4-(((2R,4S)-2-((2H-1,2,3-triazol-2-yl)methyl)-2-phenyl-1,3-dioxolan-4-yl)methoxy)phenyl)piperazin-1-yl)phenyl)-(S)-1-sec-butyl-1H-1,2,4-triazol-5(4H)-one]",< 0.5
18,CCC(CC)n1ncn(-c2ccc(N3CCN(c4ccc(OC[C@@H]5CO[C@@](Cn6cccn6)(c6ccccc6)O5)cc4)CC3)cc2)c1=O [Compound 166],< 0.5
19,CCC(C)n1ncn(-c2ccc(N3CCN(c4ccc(OC[C@@H]5CO[C@@](Cn6cccn6)(c6ccc(S(C)(=O)=O)cc6)O5)cc4)CC3)cc2)c1=O (some centres unmarked) [Compound 98],0.5 to 5
20,CCC(C)n1ncn(-c2ccc(N3CCN(c4ccc(OC[C@@H]5CO[C@](Cc6ccnnc6)(c6cccc(C(F)(F)F)c6)O5)cc4)CC3)cc2)c1=O (some centres unmarked) [Compound 113],0.5 to 5
21,CCC(C)n1ncn(-c2ccc(N3CCN(c4ccc(OC[C@@H]5CO[C@@](Cn6cccn6)(c6ccc(C(N)=O)cc6)O5)cc4)CC3)cc2)c1=O (some centres unmarked) [Compound 100],0.5 to 5

# Same assay, conditions: imaging and western based activity
row,SMILES,EC50 [µM]
1,CCC(C)n1ncn(-c2ccc(N3CCN(c4ccc(OC[C@@H]5CO[C@](Cn6nccn6)(c6ccccc6)O5)cc4)CC3)cc2)c1=O (some centres unmarked) [Compound 187],5 to 30

# — patent publication US10336735B2, “Small molecule inhibitors of fibrosis” (THE CALIFORNIA INSTITUTE FOR BIOMEDICAL RESEARCH, priority 2014, dated 2019)
